These results are taken from patent US12605318B2, “Synergistic preservative/personal care composition containing an alkylene glycol ester” (priority 2020, dated 2026).

Assay in all cases: Log reduction test of preservative agent and PGC in water matrices (drop plate), Example 3
Type in all cases: cell-based

The subject of assay [1] is Candida albicans ATCC 10231/DSM 1386. The following applies: PGC 0 ppm; for Log reduction: contact time 5 min, water. The procedure: (§1) Bacterial and yeast strains were kept cryofrozen at −80° C.; before use, they were sub-cultured onto tryptone soya agar (Bacteria) and malt extract agar (yeast), and incubated at the appropriate temperature and time.
(§2) A test suspension was then created for each the bacteria and yeast by adding loopfuls of organism to sterile distilled water and adjusting the cell concentration to between 1×10^8 and 5×10^9 CFU/ml for bacteria, and 1×10^6 and 5×10^7 CFU/ml for yeast. This was achieved using the data from a calibration curve generated by a spectrophotometer at a wavelength of 620 nm.
(§3) For each organism tested, 1 g of each preservative agent and PGC composition sample was prepared in sterile distilled water.
(§4) Each test sample was prepared by inoculating 1 ml aliquot of the test organism suspension into 1 ml of test sample.
(§5) The combination was then mixed. Each test mixture was sampled and tested at a defined time point after inoculation. The contact times used in this study are detailed in Table 7 above.
(§6) Upon reaching the specified contact time the test mixture was deactivated by adding a 100 μl of test mixture into 900 μl of neutralizing broth and the whole solution was mixed. The solution was left for 5 minutes to ensure the action of the preservative agent was effectively neutralized. Subsequent dilutions were prepared by adding 100 μl into 900 μl of neutralizing broth.
(§7) For each dilution prepare drop plates using appropriate agar and incubate at the appropriate temperature and time as in Table 5.
(§8) Used the drop plate technique.
(§9) Prepare agar plates by drying for 45 min-1 hour in a laminar flow at 20-25° C. Aliquot 0.025 ml drops onto the agar surface for each sample dilution. Allow drops to dry and incubate appropriately.
(§10) Plates were plates were prepared in sextuplicate for each for each sample dilution.
(§11) [formula] • Where • d1 is sum of viable count values from 6 drops • This was then multiplied by 40 to establish cfu/ml; Enumeration and Calculation of T (Test Sample)
(§12) [formula] • Where • d1 is sum of viable count values from 6 drops • This was then multiplied by 40 to establish cfu/ml;
(§13) To calculate the final log reduction the following calculation was used: Log 10 N−log 10 T=log reduction

In assay [2] the test system is Pluralibacter gergoviae ATCC 33028/DSM 9245. Particulars: PGC 0 ppm; for Log reduction: contact time 5 min, water. The procedure: as §1, §2, §3, §4, §5, §6, §7, §8, §9, §10, §11, §12, §13
For assay [3], the system named is Aspergillus brasiliensis ATCC 16404/NCPF 2275. Particulars: PGC 0 ppm. The procedure:
A test suspension was then created in tryptone buffered saline and adjusting the cell concentration to between 1×10^5 and 5×10^6 CFU/ml.
as §3, §4, §5, §6, §7, §8, §9, §10, §11, §12, §13

Where [4] appears, read: Didecyl dimethyl ammonium chloride 10 ppm.
Where [5] appears, read: Didecyl dimethyl ammonium chloride 20 ppm.
Where [6] appears, read: Didecyl dimethyl ammonium chloride 30 ppm.
[7] abbreviates: Didecyl dimethyl ammonium chloride 40 ppm.
The mark [8] stands for this setting: Didecyl dimethyl ammonium chloride 50 ppm.

As to `O=c1[nH]sc2ccccc12` [Benzisothiazolinone], the log reduction in assay [1] (Benzisothiazolinone 50 ppm), in assay [1] (Benzisothiazolinone 100 ppm), in assay [1] (Benzisothiazolinone 250 ppm), in assay [1] (Benzisothiazolinone 500 ppm), in assay [1] (Benzisothiazolinone 1000 ppm) and in assay [2] (Benzisothiazolinone 12.5 ppm) was 0.00 in each case. Further, the log reduction is listed as 0.00 in assay [2] (Benzisothiazolinone 25 ppm); 0.00 in assay [2] (Benzisothiazolinone 50 ppm); 0.03 in assay [2] (Benzisothiazolinone 100 ppm); 1.21 in assay [2] (Benzisothiazolinone 200 ppm); −0.03 in assay [3] (Benzisothiazolinone 50 ppm); 0.17 in assay [3] (Benzisothiazolinone 100 ppm). In addition, the results for the log reduction in assay [3] (Benzisothiazolinone 250 ppm), in assay [3] (Benzisothiazolinone 500 ppm) and in assay [3] (Benzisothiazolinone 1000 ppm) were 0.14, 0.24 and 0.28, respectively.

Take `OCc1ccccc1` [Benzyl Alcohol]: the log reduction in assay [2] (Benzyl Alcohol 500 ppm) was determined as 0.00; in assay [2] (Benzyl Alcohol 1000 ppm), 1.24; in assay [2] (Benzyl Alcohol 2000 ppm), 1.57; in assay [2] (Benzyl Alcohol 3000 ppm), 2.04; in assay [2] (Benzyl Alcohol 4000 ppm), 4.04.

With `CCCCCCCCCCCCN(CCCN)CCCN` [Bis (3-aminopropyl) dodecylamine], the Log reduction is reported as 3.14 in assay [1] (Bis (3-aminopropyl) dodecylamine 10 ppm); over 4.44 in assay [1] (Bis (3-aminopropyl) dodecylamine 20 ppm); over 4.44 in assay [1] (Bis (3-aminopropyl) dodecylamine 40 ppm); over 4.44 in assay [1] (Bis (3-aminopropyl) dodecylamine 60 ppm); over 4.44 in assay [1] (Bis (3-aminopropyl) dodecylamine 80 ppm); 0.01 in assay [2] (Bis (3-aminopropyl) dodecylamine 5 ppm). Moreover, the Log reduction in assay [2] (Bis (3-aminopropyl) dodecylamine 12.5 ppm) is 0.00; in assay [2] (Bis (3-aminopropyl) dodecylamine 25 ppm), 2.00; in assay [2] (Bis (3-aminopropyl) dodecylamine 50 ppm), over 5.52; in assay [2] (Bis (3-aminopropyl) dodecylamine 100 ppm), over 5.52.

In the case of `CC(=O)C1C(=O)C=C(C)OC1=O` (stereo not drawn) [Dehydroacetic acid], the log reduction in assay [1] (Dehydroacetic acid 1000 ppm) worked out at 0.00; in assay [1] (Dehydroacetic acid 2000 ppm), 0.00; in assay [1] (Dehydroacetic acid 3000 ppm), 0.00; in assay [1] (Dehydroacetic acid 4000 ppm), 0.23; in assay [1] (Dehydroacetic acid 5000 ppm), 0.52.

With `CCCCCCCCCC[N+](C)(C)CCCCCCCCCC.[Cl-]` [Didecyl dimethyl ammonium chloride], the Log reduction in assay [1] (setting [4]) is 1.07; in assay [1] (setting [5]), 1.01; in assay [1] (setting [6]) it was 1.33; in assay [1] (setting [7]), 2.43; in assay [1] (setting [8]), over 4.52. The log reduction in assay [3] (setting [4]) is recorded as 1.01; in assay [3] (setting [5]), 2.44; in assay [3] (setting [6]) it was over 4.05; in assay [3] (setting [7]), over 4.05; in assay [3] (setting [8]), over 4.05.

Regarding `CC(O)C(=O)O` (stereo not drawn) [Lactic Acid], the log reduction in assay [2] (Lactic Acid 200 ppm) was found to be 0.00; in assay [2] (Lactic Acid 500 ppm) it was 0.00; in assay [2] (Lactic Acid 1000 ppm) it was 2.08; in assay [2] (Lactic Acid 1500 ppm), 3.67; in assay [2] (Lactic Acid 2000 ppm), 4.49; in assay [3] (Lactic Acid 100 ppm) it was 0.06. For the same compound, the log reduction in assay [3] (Lactic Acid 250 ppm) amounted to 0.12; in assay [3] (Lactic Acid 500 ppm), 0.05; in assay [3] (Lactic Acid 1000 ppm) it was 0.08; in assay [3] (Lactic Acid 2500 ppm), 0.15.

As for `O=C([O-])c1ccccc1.[Na+]` [Sodium Benzoate], the log reduction in assay [1] (Sodium Benzoate 10000 ppm) is recorded as 0.00; in assay [1] (Sodium Benzoate 20000 ppm), 0.00; in assay [1] (Sodium Benzoate 30000 ppm) it was 0.00; in assay [1] (Sodium Benzoate 40000 ppm), 0.00; in assay [1] (Sodium Benzoate 50000 ppm), 2.06; in assay [2] (Sodium Benzoate 2000 ppm), 0.00. Further, the log reduction stood at 0.00 in assay [2] (Sodium Benzoate 5000 ppm); 0.00 in assay [2] (Sodium Benzoate 10000 ppm); 0.46 in assay [2] (Sodium Benzoate 20000 ppm); 1.40 in assay [2] (Sodium Benzoate 30000 ppm); 0.17 in assay [3] (Sodium Benzoate 10000 ppm); 0.50 in assay [3] (Sodium Benzoate 20000 ppm). Besides, the figures for the log reduction in assay [3] (Sodium Benzoate 30000 ppm), in assay [3] (Sodium Benzoate 40000 ppm) and in assay [3] (Sodium Benzoate 50000 ppm) were 0.70, 1.32 and 1.34, respectively.

For `C/C=C/C=C/C(=O)O` [Sorbic Acid], the log reduction in assay [2] (Sorbic acid 100 ppm) came out at 0.00; in assay [2] (Sorbic acid 200 ppm), 0.00; in assay [2] (Sorbic acid 300 ppm), 0.00; in assay [2] (Sorbic acid 400 ppm), 0.58; in assay [2] (Sorbic acid 500 ppm), 1.38.
